# Where two headings read alike, the source gives them in different places.
# Assays:
# [1] = target: T1, PARP-1 (Homo sapiens, UniProt P09874); test: PARP-1 inhibition assay (PARP-1 Chemiluminescent Assay Kit, BPS Bioscience); type: biochemical; details: 10 nM compound
# T1 construct: purchased BPS Bioscience 80569
# Experimental: (§1) The PARP-1 and PARP-2 inhibition assays were performed in outsourcing, by a CRO company, Shanghai Medicilon Inc. (Shanghai, China). […] Briefly, PARP-1 or PARP-2 biotinylated substrate was incubated with compounds or solvent control at varying concentrations and an assay buffer containing the PARP-1 or PARP-2 enzyme.
# [2] = target: T2, PARP-2 (Homo sapiens, UniProt Q9UGN5); test: PARP-2 inhibition assay (PARP-2 Chemiluminescent Assay Kit, BPS Bioscience); type: biochemical; details: 10 nM compound
# T2 construct: purchased BPS Bioscience 80552
# T2 sequence (Q9UGN5 whole entry): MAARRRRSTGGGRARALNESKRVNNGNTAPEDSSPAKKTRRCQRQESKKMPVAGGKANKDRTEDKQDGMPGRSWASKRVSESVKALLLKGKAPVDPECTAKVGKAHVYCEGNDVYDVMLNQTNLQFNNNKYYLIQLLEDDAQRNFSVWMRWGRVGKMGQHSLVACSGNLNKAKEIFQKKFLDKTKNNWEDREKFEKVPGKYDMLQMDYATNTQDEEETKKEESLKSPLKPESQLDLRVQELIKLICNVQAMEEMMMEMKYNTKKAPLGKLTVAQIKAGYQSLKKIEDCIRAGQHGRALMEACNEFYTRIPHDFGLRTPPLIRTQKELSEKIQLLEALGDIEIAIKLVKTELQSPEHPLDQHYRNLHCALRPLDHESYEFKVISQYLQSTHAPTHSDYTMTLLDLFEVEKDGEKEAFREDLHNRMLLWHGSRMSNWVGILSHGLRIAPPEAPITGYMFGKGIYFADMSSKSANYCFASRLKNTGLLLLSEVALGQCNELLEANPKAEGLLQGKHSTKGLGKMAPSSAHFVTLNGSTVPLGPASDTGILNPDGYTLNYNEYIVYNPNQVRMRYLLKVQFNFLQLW
# Experimental: as §1
# [3] = test system: MDA-MB-436 (a BRCA-1-mutated breast cancer cell line); test: Cell proliferation assay, three-day, CellTiter-Glo, MDA-MB-436; type: cell-based; details: for inhibition at 0.00508 µM / inhibition at 0.0152 µM / inhibition at 0.0457 µM / inhibition at 0.41 µM / inhibition at 1.23 µM / inhibition at 3.7 µM / inhibition at 11.11 µM / inhibition at 33.33 µM / inhibition at 100 µM / IC50: Homo sapiens; for inhibition at 0.00508 µM: MDA-MB-436, MDA-MB-436, Conc. 0.00508 uM; for inhibition at 0.0152 µM: MDA-MB-436, MDA-MB-436, Conc. 0.0152 uM; for inhibition at 0.0457 µM: MDA-MB-436, MDA-MB-436, Conc. 0.0457 uM; for inhibition at 0.41 µM: MDA-MB-436, MDA-MB-436, Conc. 0.41 uM; for inhibition at 1.23 µM: MDA-MB-436, MDA-MB-436, Conc. 1.23 uM; for inhibition at 3.7 µM: MDA-MB-436, MDA-MB-436, Conc. 3.70 uM; for inhibition at 11.11 µM: MDA-MB-436, MDA-MB-436, Conc. 11.11 uM; for inhibition at 33.33 µM: MDA-MB-436, MDA-MB-436, Conc. 33.33 uM; for inhibition at 100 µM: MDA-MB-436, MDA-MB-436, Conc. 100.00 uM
# Experimental: (§2) A three-day assay was conducted. A cell suspension was prepared. Cell density was counted by an automated cell counter and then diluted to the required density, according to seeding density. 50 μL cells were seeded into 384-well plate in growth medium according to the plate map. The cells were incubated at 37 °C, 5% CO2 overnight.
# (§3) 200× compound solution in DMSO was prepared and diluted with growth medium to 26× final concentration by addition of 26 μL 200× compounds to 174 μL growth medium. Then 2 μL of diluted compound solution was added to cells and the cell was incubated at 37 °C, 5% CO2 for 72 h.
# (§4) The assay plate was equilibrated to room temperature prior to measurement. 15 μL of CellTiter-Glo Reagent was added into each well and the contents were mixed for 2 min on an orbital shaker to induce cell lysis. The cells were incubated at room temperature for 60 min to stabilize luminescent signal. Luminescence was recorded on the Envision system.
# [4] = test system: CAPAN-1 (a BRCA-2-mutated pancreatic cancer cell line); test: Cell proliferation assay, three-day, CellTiter-Glo, CAPAN-1; type: cell-based; details: for inhibition at 0.00508 µM: CAPAN-1, 0.00508 uM; for inhibition at 0.0152 µM: CAPAN-1, 0.0152 uM; for inhibition at 0.0457 µM: CAPAN-1, 0.0457 uM; for inhibition at […]: CAPAN-1, 0.14 uM; for inhibition at 0.41 µM: CAPAN-1, 0.41 uM; for inhibition at 1.23 µM: CAPAN-1, 1.23 uM; for inhibition at 3.7 µM: CAPAN-1, 3.70 uM; for inhibition at 11.11 µM: CAPAN-1, 11.11 uM; for inhibition at 33.33 µM: CAPAN-1, 33.33 uM; for inhibition at 100 µM: CAPAN-1, 100.00 uM
# Experimental: as §2, §3, §4
# [5] = Homo sapiens, replicate 1, read-out: Inh % 1
# [6] = Homo sapiens, replicate 2, read-out: Inh % 2
# T1 sequence (P09874 whole entry): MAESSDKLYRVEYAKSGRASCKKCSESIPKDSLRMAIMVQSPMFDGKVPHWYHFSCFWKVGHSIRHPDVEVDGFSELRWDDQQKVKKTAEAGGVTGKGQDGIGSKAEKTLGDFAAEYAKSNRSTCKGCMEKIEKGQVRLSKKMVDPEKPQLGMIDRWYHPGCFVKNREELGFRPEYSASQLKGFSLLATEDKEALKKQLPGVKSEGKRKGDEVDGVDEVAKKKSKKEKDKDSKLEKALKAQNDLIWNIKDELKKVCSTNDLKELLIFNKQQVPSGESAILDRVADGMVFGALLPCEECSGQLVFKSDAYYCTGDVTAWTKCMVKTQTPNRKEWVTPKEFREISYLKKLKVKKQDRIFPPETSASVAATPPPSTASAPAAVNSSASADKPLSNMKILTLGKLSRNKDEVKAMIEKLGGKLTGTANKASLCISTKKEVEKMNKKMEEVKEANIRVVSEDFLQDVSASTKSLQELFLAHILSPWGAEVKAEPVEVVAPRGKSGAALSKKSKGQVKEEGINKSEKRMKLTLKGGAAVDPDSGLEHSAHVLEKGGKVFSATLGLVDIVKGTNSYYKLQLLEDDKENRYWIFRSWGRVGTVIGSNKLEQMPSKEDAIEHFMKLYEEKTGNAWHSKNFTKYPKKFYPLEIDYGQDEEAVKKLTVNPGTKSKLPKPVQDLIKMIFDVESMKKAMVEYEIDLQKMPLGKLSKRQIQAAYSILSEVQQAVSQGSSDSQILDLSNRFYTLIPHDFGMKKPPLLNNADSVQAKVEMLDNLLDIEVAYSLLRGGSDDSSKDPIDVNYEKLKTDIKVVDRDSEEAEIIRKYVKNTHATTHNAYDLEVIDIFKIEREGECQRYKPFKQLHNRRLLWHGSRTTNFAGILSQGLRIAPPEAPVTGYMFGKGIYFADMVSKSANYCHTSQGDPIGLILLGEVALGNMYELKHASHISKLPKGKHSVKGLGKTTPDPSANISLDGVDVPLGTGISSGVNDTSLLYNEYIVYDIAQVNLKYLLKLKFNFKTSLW
smiles,measurement,setting,value
"NC(=O)c1cccc2[nH]c(C3CCN(CCC(=O)Nc4ccccc4)C3)nc12 (centres unmarked) [Compound 5cb, 2-(1-(3-Oxo-3-(Phenylamino)propyl)pyrrolidin-3-yl)-1H-benzo[d]imidazole-4-carboxamide]",inhibition at 0.01 µM,"[1]; supplement sheet, read-out: 10 nM inhibition% PAPR-1",19.9%
same,inhibition at 0.01 µM,[1]; read-out: PARP-1 Inhibition % (10 nM),19.9%
same,inhibition at 0.01 µM,"[2]; supplement sheet, read-out: 10 nM inhibition% PAPR-2",41.2%
same,inhibition at 0.01 µM,[2]; read-out: PARP-2 Inhibition % (10 nM),41.2%
same,inhibition at 0.00508 µM,"[3]; replicate 1, read-out: Inh % 1",0.0167%
same,inhibition at 0.00508 µM,"[3]; replicate 2, read-out: Inh % 2",-6.8%
same,inhibition at 0.0152 µM,"[3]; replicate 1, read-out: Inh % 1",-5.6%
same,inhibition at 0.0152 µM,"[3]; replicate 2, read-out: Inh % 2",-10.5%
same,inhibition at 0.0457 µM,"[3]; replicate 1, read-out: Inh % 1",-12.9%
same,inhibition at 0.0457 µM,"[3]; replicate 2, read-out: Inh % 2",-11.3%
same,inhibition at 0.41 µM,"[3]; replicate 1, read-out: Inh % 1",-10%
same,inhibition at 0.41 µM,"[3]; replicate 2, read-out: Inh % 2",-14%
same,inhibition at 1.23 µM,"[3]; replicate 1, read-out: Inh % 1",-9.6%
same,inhibition at 1.23 µM,"[3]; replicate 2, read-out: Inh % 2",-14.7%
same,inhibition at 3.7 µM,"[3]; replicate 1, read-out: Inh % 1",-9.8%
same,inhibition at 3.7 µM,"[3]; replicate 2, read-out: Inh % 2",-10.5%
same,inhibition at 11.11 µM,"[3]; replicate 1, read-out: Inh % 1",-2.5%
same,inhibition at 11.11 µM,"[3]; replicate 2, read-out: Inh % 2",-1.6%
same,inhibition at 33.33 µM,"[3]; replicate 1, read-out: Inh % 1",9.7%
same,inhibition at 33.33 µM,"[3]; replicate 2, read-out: Inh % 2",9.8%
same,inhibition at 100 µM,"[3]; replicate 1, read-out: Inh % 1",58.3%
same,inhibition at 100 µM,"[3]; replicate 2, read-out: Inh % 2",40%
same,IC50,"[3]; MDA-MB-436, 72 h, CellTiter-Glo, read-out: MDA-MB-436 IC50",90.4 µM
same,IC50,"[3]; MDA-MB-436, 72 h, supplement Summary sheet, read-out: IC50",90.4 µM
same,IC50,"[3]; MDA-MB-436, curve fit list, no unit in the cell, concentration in uM, read-out: IC50",90.4 µM
same,LogIC50,"[3]; MDA-MB-436, curve fit on Log (uM) concentrations",1.956
same,Bottom,"[3]; MDA-MB-436, curve fit parameter (Inh %)",-10.26
same,Top,"[3]; MDA-MB-436, curve fit parameter (Inh %), '= 100.0' is a constrained value",= 100.0
same,LogIC50,"[4]; CAPAN-1, curve-fit output, Log (uM)",2.189
same,IC50,"[4]; Homo sapiens, CAPAN-1, 72 h, CellTiter-Glo, read-out: CAPAN-1 IC50",> 100 µM
same,inhibition at 0.00508 µM,[4]; [5],-8%
same,inhibition at 0.00508 µM,[4]; [6],3.3%
same,inhibition at 0.0152 µM,[4]; [5],3.4%
same,inhibition at 0.0152 µM,[4]; [6],17%
same,inhibition at 0.0457 µM,[4]; [5],-4.1%
same,inhibition at 0.0457 µM,[4]; [6],5.6%
same,inhibition at […],[4]; [5],-2%
same,inhibition at […],[4]; [6],2.2%
same,inhibition at 0.41 µM,[4]; [5],10.3%
same,inhibition at 0.41 µM,[4]; [6],6.1%
same,inhibition at 1.23 µM,[4]; [5],12.4%
same,inhibition at 1.23 µM,[4]; [6],-0.64%
same,inhibition at 3.7 µM,[4]; [5],11.2%
same,inhibition at 3.7 µM,[4]; [6],9.9%
same,inhibition at 11.11 µM,[4]; [5],5%
same,inhibition at 11.11 µM,[4]; [6],-4.1%
same,inhibition at 33.33 µM,[4]; [5],3.6%
same,inhibition at 33.33 µM,[4]; [6],21.6%
same,inhibition at 100 µM,[4]; [5],39.1%
same,inhibition at 100 µM,[4]; [6],32%

# Source: publication PMC6572064, “Discovery of 2-(1-(3-(4-Chloroxyphenyl)-3-oxo- propyl)pyrrolidine-3-yl)-1H-benzo[d]imidazole-4-carboxamide: A Potent Poly(ADP-ribose) Polymerase (PARP) Inhibitor for Treatment of Cancer” (Molecules, 2019)
